We go through one compound from patent publication US20090247527A1, “SUBSTITUTED GAMMA LACTAMS AS THERAPEUTIC AGENTS” (ALLERGAN, INC., priority 2008, published 2009).

The subject of the assay is lashes and adjacent hairs of patients having glaucoma. Description: Observation of lashes and adjacent hairs in glaucoma patients treated with bimatoprost in one eye. In kind it is in vivo, human. The conditions noted are these: glaucoma patients treated unilaterally; gross inspection and slit lamp biomicroscope. From the text:
In the course of treating patients having glaucoma, treatment may only be appropriate in one eye. […] The lash appearance on the lids of the treated eyes would have appeared quite attractive if it represented a bilateral phenomenon. As a result of its asymmetric nature, the long lashes on one side could be construed as disturbing from a cosmetic standpoint. A systemic examination was preformed as a result of the asymmetric phenomenon. It soon became apparent that this altered appearance was not an isolated finding. […] Definite differences could be identified to varying degrees in the lashes and adjacent hairs of all patients who were taking the drug on a unilateral basis for longer than 6 months.
The changes in the lashes were apparent on gross inspection in several patients once attention was focused on the issue. In those with light colored hair and lashes, the differences were only seen easily with the aid of the high magnification and lighting capabilities of the slit lamp biomicroscope. In the course of glaucoma follow-up examination, attention is generally immediately focused on the eye itself. As a result of the high power magnification needed only one eye is seen at a time and the eye is seen at a high enough power that the lashes are not in focus. […]

“Also recorded” adds a separate entry of the source.

As to `CCNC(=O)CCC/C=C\C[C@@H]1[C@@H](/C=C/[C@@H](O)CCc2ccccc2)[C@H](O)C[C@@H]1O` [bimatoprost], the “lash / hair growth in treated eye versus non-treated eye” value was “longer, thicker, and fuller in the treated eye than in the non-treated eye; also recorded: hair growth is stimulated”.
